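Five compound concentrations were applied to cells in 96-well plates for 48 hours; endpoints were derived by simple linear interpolation of the resulting dose-response curve. GI50 marks 50% less growth.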 Calls of active or inactive are those of the source. Cut-off read from the data, not from the text of the source: active = GI50 up to about 1.1 µM and inactive = higher.

Some test systems named below: UACC-62; KM12; SK-OV-3; TK-10; SR; HL-60; HOP-62; RXF 393; U-251; LOX IMVI; CAKI-1; OVCAR-4; OVCAR-8; OVCAR-5; T47D; NCI/ADR-RES; PC-3; Hs-578T; MCF7.
Common to all, as to assay: NCI tumour cell line growth inhibition, 48 h

Turning to `CC(Oc1ccc2c(-c3ccc(Cl)cc3)cc(=O)oc2c1)C(=O)O` (stereo unspecified), the GI50 in the assay with UACC-62, in the assay on KM12, in the assay with SK-OV-3, in the assay with TK-10, in the assay on SR and with HL-60 was > 100 µM (inactive) each time. The GI50 in the assay on HOP-62, with RXF 393, in the assay on U-251, with LOX IMVI, in the assay with CAKI-1 and in the assay with OVCAR-4 was > 100 µM (inactive) each time. Further, the GI50 in the assay on OVCAR-8 is > 100 µM (inactive).

Turning to `O=c1n(-c2ccccc2)c(=O)n2n1C1C=CC2C2C(C1)C2(Cl)Cl` (stereo unspecified), the GI50 in the assay with OVCAR-5, with UACC-62, in the assay on KM12, with SK-OV-3, in the assay with TK-10 and in the assay with SR was > 100 µM (inactive) each time. Also, the GI50 with HL-60, with HOP-62, in the assay with RXF 393, in the assay with U-251, in the assay on LOX IMVI and with CAKI-1 was > 100 µM (inactive) in each case. Moreover, the GI50 in the assay with OVCAR-4 and in the assay with OVCAR-8 was > 100 µM (inactive) throughout.

Turning to `CCN(CC)CCNc1ccc2ncn3c4cc(O)ccc4c(=O)c1c23`, the GI50 is 11 µM (inactive) in the assay on OVCAR-5; 5.65 µM (inactive) with UACC-62; 4.61 µM (inactive) in the assay on KM12; 9.62 µM (inactive) with SK-OV-3; 6.65 µM (inactive) in the assay with TK-10; 2.26 µM (inactive) with SR. The GI50 with HL-60 was 2.84 µM (inactive); in the assay on HOP-62 it was 4.85 µM (inactive); with RXF 393 it was 0.536 µM (active); in the assay with U-251, 1.53 µM (inactive); in the assay on LOX IMVI it was 1.87 µM (inactive); in the assay on CAKI-1, 3.05 µM (inactive). Also, the values for the GI50 in the assay with OVCAR-4 and in the assay with OVCAR-8 were 2.45 µM (inactive) and 1.15 µM (inactive), respectively.

As for `Fc1ccc2c(c1)cc1ccc3cccc4ccc2c1c34`, the GI50 in the assay with OVCAR-5, with UACC-62, in the assay on KM12, with SK-OV-3, in the assay on TK-10 and in the assay on SR was > 100 µM (inactive) each time. In addition, the GI50 with HL-60, in the assay with HOP-62, with RXF 393, with U-251, in the assay on LOX IMVI and in the assay with CAKI-1 was > 100 µM (inactive) in each case. The GI50 with OVCAR-4 and in the assay with OVCAR-8 was > 100 µM (inactive) each time.

In the case of `O=C(/C=C/c1ccccc1)Oc1cccc2cccnc12`, the GI50 is 14.7 µM (inactive) in the assay on OVCAR-5; 5.47 µM (inactive) with UACC-62; 8.39 µM (inactive) in the assay on KM12; 41.1 µM (inactive) in the assay with SK-OV-3; > 84.5 µM (inactive) in the assay on TK-10; 1.57 µM (inactive) with SR. Also, the GI50 was 3.01 µM (inactive) with HL-60; 21.2 µM (inactive) in the assay on HOP-62; 21.1 µM (inactive) in the assay on RXF 393; 4.71 µM (inactive) in the assay with U-251; 9.64 µM (inactive) in the assay on LOX IMVI; 32 µM (inactive) in the assay with CAKI-1. Further, the GI50 is 6.87 µM (inactive) with OVCAR-4 and 4.02 µM (inactive) in the assay on OVCAR-8.

`O=C1CCN/C(=N\C(=O)C(F)(F)F)N1CCc1c[nH]c2ccccc12`: the GI50 in the assay with OVCAR-5, with T47D, with NCI/ADR-RES, in the assay with PC-3, in the assay on UACC-62 and with KM12 was > 100 µM (inactive) throughout. The GI50 in the assay on SK-OV-3, in the assay with TK-10, in the assay with HL-60, with HOP-62, with RXF 393 and with Hs-578T was > 100 µM (inactive) in each case. The GI50 in the assay on U-251, in the assay with LOX IMVI, with CAKI-1, in the assay with OVCAR-4, with OVCAR-8 and in the assay with MCF7 was > 100 µM (inactive) each time.

As to `COc1cc(C2c3cc4c(cc3[C@@H](Nc3ccccc3)C3COC[C@H]23)OCO4)cc(OC)c1O` (stereo partly specified), the GI50 is 2.36 µM (inactive) with OVCAR-5; 1.19 µM (inactive) with T47D; 10.9 µM (inactive) with NCI/ADR-RES; 3.33 µM (inactive) in the assay with PC-3; 2.84 µM (inactive) in the assay with KM12; 2.92 µM (inactive) in the assay on SK-OV-3. The GI50 is 7.46 µM (inactive) in the assay with TK-10; 0.465 µM (active) in the assay on SR; 0.573 µM (active) in the assay with HL-60; 1.48 µM (inactive) with HOP-62; 0.736 µM (active) in the assay on Hs-578T; 0.897 µM (active) with U-251. Further, the GI50 is 16.9 µM (inactive) in the assay on OVCAR-4, 2.82 µM (inactive) in the assay on OVCAR-8 and 0.512 µM (active) in the assay on MCF7.

As for `[O-][n+]1c(-c2ccccc2)oc2ccccc21`, the GI50 is 33.8 µM (inactive) in the assay on OVCAR-5; 8.69 µM (inactive) with UACC-62; 17.3 µM (inactive) in the assay on KM12; > 67.5 µM (inactive) in the assay with SK-OV-3; 26.6 µM (inactive) in the assay on TK-10; > 100 µM (inactive) with SR. The GI50 was 5.28 µM (inactive) in the assay on HL-60; 20.4 µM (inactive) in the assay with HOP-62; 21.2 µM (inactive) in the assay with RXF 393; 18.9 µM (inactive) with U-251; 3.07 µM (inactive) in the assay on LOX IMVI; > 41.1 µM (inactive) in the assay on CAKI-1. Also, the GI50 in the assay with OVCAR-4 is 24.5 µM (inactive); in the assay on OVCAR-8, 15.9 µM (inactive).

Turning to `C=C(C)CC(C)(c1cc2ccccc2n1C)N1CCOCC1` (stereo unspecified), the GI50 is 45.1 µM (inactive) in the assay on UACC-62; 38.4 µM (inactive) in the assay on KM12; > 100 µM (inactive) with SK-OV-3; > 100 µM (inactive) in the assay on TK-10; 69 µM (inactive) with SR; 57 µM (inactive) in the assay with HL-60. Moreover, the GI50 in the assay on HOP-62 is > 100 µM (inactive); in the assay with RXF 393, 65.5 µM (inactive); in the assay with LOX IMVI, > 100 µM (inactive); in the assay with CAKI-1, 80.5 µM (inactive); in the assay with OVCAR-4, > 100 µM (inactive); in the assay with OVCAR-8 it was 67.1 µM (inactive).

On to `O=[N+]([O-])c1ccc(/C=C/c2cc(-c3ccccc3)nc3ccc4ccccc4c23)cc1`, for which the GI50 in the assay on OVCAR-5, in the assay on NCI/ADR-RES, with PC-3, in the assay on UACC-62, in the assay on KM12 and with SK-OV-3 was > 100 µM (inactive) each time. The GI50 in the assay with TK-10, in the assay with SR, in the assay with HL-60, in the assay on HOP-62, with RXF 393 and in the assay with Hs-578T was > 100 µM (inactive) throughout. Further, the GI50 is > 100 µM (inactive) in the assay with U-251; > 100 µM (inactive) in the assay on LOX IMVI; > 100 µM (inactive) in the assay with CAKI-1; > 100 µM (inactive) in the assay on OVCAR-4; > 100 µM (inactive) in the assay on OVCAR-8; 57 µM (inactive) in the assay on MCF7.

Regarding `Cc1cc(C)c(-c2noc(-c3ccc(Cl)cc3)c2C2=NCCCN2)c(C)c1`, the GI50 with OVCAR-5 was 31.6 µM (inactive); in the assay on UACC-62 it was 16.3 µM (inactive); in the assay with KM12 it was 23 µM (inactive); in the assay on SK-OV-3, 18.4 µM (inactive); in the assay with SR, 26.5 µM (inactive); in the assay with HL-60, 13.2 µM (inactive). Also, the GI50 is 21.8 µM (inactive) with HOP-62; 7.1 µM (inactive) with RXF 393; 7.57 µM (inactive) in the assay with U-251; 16.2 µM (inactive) in the assay with LOX IMVI; > 100 µM (inactive) with CAKI-1; 97.1 µM (inactive) in the assay on OVCAR-4. Also, the GI50 in the assay on OVCAR-8 was 26.7 µM (inactive).

For `CCOC(=O)C(=O)Nc1ccc(Cl)cc1C`, the GI50 in the assay with OVCAR-5, in the assay on UACC-62, in the assay with KM12, in the assay with SK-OV-3, in the assay on TK-10 and in the assay with SR was > 100 µM (inactive) each time. The GI50 in the assay with HL-60, with HOP-62, with RXF 393, with U-251, in the assay on LOX IMVI and in the assay with CAKI-1 was > 100 µM (inactive) in each case. Further, the GI50 in the assay on OVCAR-4 and in the assay with OVCAR-8 was > 100 µM (inactive) each time.

Consider `C=C1C(=O)C23C(CC(OC(C)=O)C1[C@@H]2OC(C)=O)C1(C)C(OC(C)=O)CCC(C)(C)C1C[C@@H]3OC(C)=O` (stereo partly specified), for which the GI50 with OVCAR-5 was 1.86 µM (inactive); in the assay on UACC-62, 1.9 µM (inactive); with KM12, 1.91 µM (inactive); in the assay with SK-OV-3 it was 1.97 µM (inactive); in the assay on SR it was 1.57 µM (inactive); in the assay with HL-60, 0.0771 µM (active). Besides, the GI50 in the assay on HOP-62 is 3.14 µM (inactive); in the assay on RXF 393 it was 0.237 µM (active); in the assay on U-251, 1.55 µM (inactive); with LOX IMVI it was 1.24 µM (inactive); with CAKI-1 it was 0.653 µM (active); in the assay with OVCAR-4, 1.91 µM (inactive). In the assay with OVCAR-8, the GI50 was 0.418 µM (active).

Source of the values: ChEMBL document CHEMBL1201862, “PubChem BioAssay data set” (2004).
